From paper PMC8117417, “Novel Trifluoromethyl Pyrimidinone Compounds With Activity Against Mycobacterium tuberculosis” (Frontiers in Chemistry, 2021)
In brackets after ≈: the same amount, converted by molar mass.

Experiments:
[1] = tested on: M. tuberculosis H37Rv; experiment: Minimum inhibitory concentration (IC90) against fluorescent M. tuberculosis in liquid culture; settings: for IC90: read-out: MTB IC90; for IC90 / MTB IC90: concentration required to inhibit M. tuberculosis growth by 90%, aerobic culture, 5 days, 7H9-OADC-Tw
[2] = tested on: HepG2 human liver cells; experiment: Cytotoxicity against HepG2 cells (CellTiter-Glo); format: cell-based; settings: concentration required to inhibit growth of HepG2 cells by 50%, 72 h exposure
Procedure: Cytotoxicity was measured after 72 h of compound exposure at 37°C and 5% CO2 using CellTiter-Glo (Promega).

[3] = MTB IC90 assay, Figure 1 primary hits and reference drugs in this assay

Row | Compound | IC90 [1] | MIC [1, 3] | IC50 ([2]; Homo sapiens, HepG2, 72 h) | melting point | further results
1 | 5-Cyclopentyl-2-(Pyridin-2-yl)-6-(Trifluoromethyl)Pyrimidin-4(3H)-One [Compound 57] | 10 ± 2.6 µM |  |  |  | IC50 [2]: 5.9 ± 0.57 µM
2 | O=C1c2ccccc2-c2nn3c(=O)cc(C(F)(F)F)nc3nc21 [Compound 1] |  | 3.1 ± 0.49 µM (≈ 0.986 µg/mL) |  |  | 
3 | CCCCc1c(C(F)(F)F)nc(-c2ccccn2)[nH]c1=O [Compound 2] |  | 6.8 ± 2.0 µM (≈ 2.02 µg/mL) | 5.3 ± 1.2 µM |  | 
4 | Cc1c(C(F)(F)F)nc(-c2cc(COc3ccc(O)cc3)ccn2)[nH]c1=O [Compound 3] | 7.6 ± 0.85 µM | 7.6 ± 0.85 µM (≈ 2.87 µg/mL) | 7.4 ± 0.28 µM |  | 
5 | O=c1cc(C(F)(F)F)nc(-c2cc(CCc3ccc(O)cc3)ccn2)[nH]1 [Compound 4] |  | 4.2 ± 2.1 µM (≈ 1.52 µg/mL) |  |  | 
6 | O=c1cc(C(F)(F)F)nc(-c2cc(OCc3ccccc3)ccn2)[nH]1 [Compound 6] | 1.3 ± 0.21 µM | 1.3 ± 0.21 µM (≈ 0.451 µg/mL) | 2.5 ± 0.78 µM |  | 
7 | COC(=O)Cc1ccc(OCc2ccnc(-c3nc(C(F)(F)F)cc(=O)[nH]3)c2)cc1 [Compound 7] | 3.3 ± 0.71 µM | 3.3 ± 0.71 µM (≈ 1.38 µg/mL) | 7.1 ± 0.14 µM |  | 
8 | N#Cc1ccc(COc2ccnc(-c3nc(C(F)(F)F)cc(=O)[nH]3)c2)cc1 [Compound 9] | 3.7 ± 0.85 µM | 3.7 ± 0.85 µM (≈ 1.38 µg/mL) | 6.1 ± 2.1 µM |  | 
9 | O=c1[nH]c(-c2ccccn2)nc(C(F)(F)F)c1CC1CC1 [Compound 11] | 7.9 ± 2.1 µM | 7.9 ± 2.1 µM (≈ 2.33 µg/mL) | 11 ± 4.7 µM |  | 
10 | CCOC(=O)CCCc1c(C(F)(F)F)nc(-c2ccccn2)[nH]c1=O [Compound 12] | 3.1 ± 0.57 µM | 3.1 ± 0.57 µM (≈ 1.1 µg/mL) | 10 ± 4.3 µM |  | 
11 | CCCc1c(C(F)(F)F)nc(-c2ccccn2)[nH]c1=O [Compound 13] | 10 ± 1.3 µM | 10 ± 1.3 µM (≈ 2.83 µg/mL) | 12 ± 1.4 µM |  | 
12 | CC(C)Cc1c(C(F)(F)F)nc(-c2ccccn2)[nH]c1=O [Compound 14] | 5.8 ± 1.3 µM | 5.8 ± 1.3 µM (≈ 1.72 µg/mL) | 7.5 ± 1.3 µM |  | 
13 | N#Cc1ccc(OCc2ccnc(-c3nc(C(F)(F)F)cc(=O)[nH]3)c2)cc1 [Compound 15] | 5.3 ± 1.3 µM | 5.3 ± 1.3 µM (≈ 1.97 µg/mL) | 7.4 ± 1.6 µM |  | 
14 | O=c1cc(C(F)(F)F)nc(-c2ccccn2)[nH]1 [Compound 16, 2-(Pyridin-2-yl)-6-(Trifluoromethyl)Pyrimidin-4(3H)-One] | 4.9 ± 0.79 µM |  | > 100 µM |  | HepG2 IC50 [2]: lacked cytotoxicity
15 | O=c1cc(C(F)(F)F)nc(-c2ncccc2O)[nH]1 [Compound 17, 2-(3-Hydroxypyridin-2-yl)-6-(Trifluoromethyl)Pyrimidin-4(3H)-One] | 3.3 ± 1.1 µM |  | 16 ± 7.6 µM |  | 
16 | O=c1cc(C(F)(F)F)nc(-c2ncccn2)[nH]1 [Compound 18, 6-(Trifluoromethyl)-[2,2′-Bipyrimidin]-4(3H)-One] | > 20 µM |  | > 100 µM | 236 to 238 °C | MTB IC90 [1]: abolished activity; HepG2 IC50 [2]: abolished activity and cytotoxicity
17 | COc1cccnc1-c1nc(C(F)(F)F)cc(=O)[nH]1 [Compound 19, 2-(3-Methoxypyridin-2-yl)-6-(Trifluoromethyl)Pyrimidin-4(3H)-One] | > 20 µM |  | > 100 µM | 178 to 179 °C | 
18 | O=c1cc(C(F)(F)F)nc(-c2cccnc2)[nH]1 [Compound 20, 2-(Pyridin-3-yl)-6-(Trifluoromethyl)Pyrimidin-4(3H)-One] | > 20 µM |  | > 100 µM | 276 to 277 °C | 
19 | O=c1cc(C(F)(F)F)nc(-c2ncccc2Cl)[nH]1 [Compound 21, 2-(3-Chloropyridin-2-yl)-6-(Trifluoromethyl)Pyrimidin-4(3H)-One] | > 20 µM |  | > 100 µM |  | 
20 | Cc1c(C(F)(F)F)nc(-c2cccnc2)[nH]c1=O [Compound 22, 5-Methyl-2-(Pyridin-3-yl)-6-(Trifluoromethyl)Pyrimidin-4(3H)-One] | > 20 µM |  | > 100 µM | 213 to 215 °C | 
21 | Cc1c(C(F)(F)F)nc(-c2ccncc2)[nH]c1=O [Compound 23, 5-Methyl-2-(Pyridin-4-yl)-6-(Trifluoromethyl)Pyrimidin-4(3H)-One] | > 20 µM |  | > 100 µM | 228 to 230 °C | 
22 | O=c1cc(C(F)(F)F)nc(-c2ccccc2)[nH]1 [Compound 24, 2-Phenyl-6-(Trifluoromethyl)Pyrimidin-4(3H)-One] | > 20 µM |  | > 100 µM | 225 to 227 °C | 

Row | Compound | IC90 [1] | MIC [1, 3] | IC50 ([2]; Homo sapiens, HepG2, 72 h) | melting point | further results
23 | O=c1cc(C(F)(F)F)nc(-c2ccccc2OC(F)(F)F)[nH]1 [Compound 25] | > 20 µM |  | > 100 µM |  | 
24 | O=c1cc(C(F)(F)F)nc(-c2ncccc2F)[nH]1 [Compound 26, 2-(3-Fluoropyridin-2-yl)-6-(Trifluoromethyl)Pyrimidin-4(3H)-One] | > 20 µM |  | > 100 µM |  | 
25 | O=c1cc(C(F)(F)F)nc(C2CCCCC2)[nH]1 [Compound 27, 2-Cyclohexyl-6-(Trifluoromethyl)Pyrimidin-4(3H)-One] | > 20 µM |  | 90 ± 17 µM | 198 to 199 °C | 
26 | O=c1cc(C(F)(F)F)nc(-c2ccccc2F)[nH]1 [Compound 28, 2-(2-Fluorophenyl)-6-(Trifluoromethyl)Pyrimidin-4(3H)-One] | > 20 µM |  | > 100 µM | 168 to 169 °C | 
27 | Cc1cccc(C)c1-c1nc(C(F)(F)F)cc(=O)[nH]1 [Compound 29, 2-(2,6-Dimethylphenyl)-6-(Trifluoromethyl)Pyrimidin-4(3H)-One] | > 20 µM |  | > 100 µM | 201 to 202 °C | 
28 | Cc1ccccc1-c1nc(C(F)(F)F)cc(=O)[nH]1 [Compound 30, 2-(o-Tolyl)-6-(Trifluoromethyl)Pyrimidin-4(3H)-One] | > 20 µM |  | > 100 µM | 155 to 156 °C | 
29 | O=c1cc(C(F)(F)F)nc(-c2ccccc2O)[nH]1 [Compound 31, 2-(2-Hydroxyphenyl)-6-(Trifluoromethyl)Pyrimidin-4(3H)-One] | > 20 µM |  | 79 ± 7.8 µM | 236 to 238 °C | 
30 | Cc1c(C(F)(F)F)nc[nH]c1=O [Compound 32, 5-Methyl-6-(Trifluoromethyl)Pyrimidin-4(3H)-One] | > 20 µM |  | > 100 µM | 183 to 185 °C | MTB IC90 [1]: no antibacterial activity
31 | COc1ccccc1-c1nc(C(F)(F)F)c(C)c(=O)[nH]1 [Compound 34, 2-(2-Methoxyphenyl)-5-Methyl-6-(Trifluoromethyl)Pyrimidin-4(3H)-One] |  |  | 95 ± 9.5 µM | 158 to 160 °C | 
32 | Cc1c(C(F)(F)F)nc(-c2ccccc2)[nH]c1=O [Compound 35, 5-Methyl-2-Phenyl-6-(Trifluoromethyl)Pyrimidin-4(3H)-One] | > 20 µM |  | > 100 µM | 256 to 259 °C | 
33 | Cc1c(C(F)(F)F)nc(-c2ccccc2F)[nH]c1=O [Compound 36, 2-(2-Fluorophenyl)-5-Methyl-6-(Trifluoromethyl)pyrimidin-4(3H)-One] | > 20 µM |  | > 100 µM | 139 to 141 °C | 
34 | Cc1c(C(F)(F)F)nc(-c2ccccc2Cl)[nH]c1=O [Compound 37, 2-(2-Chlorophenyl)-5-Methyl-6-(Trifluoromethyl)Pyrimidin-4(3H)-One] | > 20 µM |  | 86 ± 24 µM | 165 to 167 °C | 
35 | Cc1c(C(F)(F)F)nc(-c2ncccc2Cl)[nH]c1=O [Compound 38, 2-(3-Chloropyridin-2-yl)-5-Methyl-6-(Trifluoromethyl)Pyrimidin-4(3H)-One] | > 20 µM |  | > 100 µM |  | 
36 | COc1cccnc1-c1nc(C(F)(F)F)c(C)c(=O)[nH]1 [Compound 39, 2-(3-Methoxypyridin-2-yl)-5-Methyl-6-(Trifluoromethyl)Pyrimidin-4(3H)-One] | > 20 µM |  | > 100 µM | 164 to 165 °C | 
37 | Cc1c(C(F)(F)F)nc(C2CCCCC2)[nH]c1=O [Compound 40, 2-Cyclohexyl-5-Methyl-6-(Trifluoromethyl)Pyrimidin-4(3H)-One] | > 20 µM |  | > 100 µM | 169 to 170 °C | 
38 | Cc1c(C(F)(F)F)nc(-c2ncccn2)[nH]c1=O [Compound 41, 5-Methyl-6-(Trifluoromethyl)-[2,2′-Bipyrimidin]-4(3H)-One] | > 20 µM |  | > 100 µM | 229 to 230 °C | 
39 | Cc1c(C(F)(F)F)nc(-c2ncccc2F)[nH]c1=O [Compound 45, 2-(3-Fluoropyridin-2-yl)-5-Methyl-6-(Trifluoromethyl)Pyrimidin-4(3H)-One] | > 20 µM |  | > 100 µM |  | 
40 | Cc1nc(-c2ccccn2)[nH]c(=O)c1C [Compound 49, 5,6-Dimethyl-2-(Pyridin-2-yl)Pyrimidin-4(3H)-One] | > 20 µM |  | 88 ± 6.9 µM |  | 
41 | COc1c(C(F)(F)F)nc(-c2ccccn2)[nH]c1=O [Compound 56, 5-Methoxy-2-(Pyridin-2-yl)-6-(Trifluoromethyl)Pyrimidin-4(3H)-One] | 6.1 ± 0.26 µM |  | 5 ± 0.82 µM |  | 
42 | CC[C@@H](CO)NCCN[C@@H](CC)CO [ethambutol, reference compound] |  | 3.3 ± 0.4 µM (≈ 0.674 µg/mL) |  |  | 
43 | NNC(=O)c1ccncc1 [isoniazid, reference compound] |  | 0.6 ± 0.2 µM (≈ 0.0823 µg/mL) |  |  | 
44 | CO[C@H]1/C=C/O[C@@]2(C)Oc3c(C)c(O)c4c(O)c(c(/C=N/N5CCN(C)CC5)c(O)c4c3C2=O)NC(=O)/C(C)=C\C=C\[C@H](C)[C@H](O)[C@@H](C)[C@@H](O)[C@@H](C)[C@H](OC(C)=O)[C@@H]1C [rifampicin, reference compound] |  |  |  |  | MIC ([1]; reference drug in this assay): 0.008 ± 0.0002 µM (≈ 0.00658 µg/mL)
